Our source for the IC50 values is patent US20220380374A1, “1,4-DIHYDROBENZO[D]PYRAZOLO[3,4-F][1,3]DIAZEPINE DERIVATIVES AND RELATED COMPOUNDS AS LRRK2, NUAK1 AND/OR TYK2 KINASE MODULATORS FOR THE TREATMENT OF E.G. AUTOIMMUNE DISEASE” (Origenis GMBH, priority 2019, published 2022).

Experiment [1] deals with T1, wt human NUAK1, full length (Homo sapiens, UniProt O60285).
T1 construct: 8 nM wt human NUAK1, full length (ThermoFisher/USA); purchased ThermoFisher/USA
T1 sequence (O60285 1-661): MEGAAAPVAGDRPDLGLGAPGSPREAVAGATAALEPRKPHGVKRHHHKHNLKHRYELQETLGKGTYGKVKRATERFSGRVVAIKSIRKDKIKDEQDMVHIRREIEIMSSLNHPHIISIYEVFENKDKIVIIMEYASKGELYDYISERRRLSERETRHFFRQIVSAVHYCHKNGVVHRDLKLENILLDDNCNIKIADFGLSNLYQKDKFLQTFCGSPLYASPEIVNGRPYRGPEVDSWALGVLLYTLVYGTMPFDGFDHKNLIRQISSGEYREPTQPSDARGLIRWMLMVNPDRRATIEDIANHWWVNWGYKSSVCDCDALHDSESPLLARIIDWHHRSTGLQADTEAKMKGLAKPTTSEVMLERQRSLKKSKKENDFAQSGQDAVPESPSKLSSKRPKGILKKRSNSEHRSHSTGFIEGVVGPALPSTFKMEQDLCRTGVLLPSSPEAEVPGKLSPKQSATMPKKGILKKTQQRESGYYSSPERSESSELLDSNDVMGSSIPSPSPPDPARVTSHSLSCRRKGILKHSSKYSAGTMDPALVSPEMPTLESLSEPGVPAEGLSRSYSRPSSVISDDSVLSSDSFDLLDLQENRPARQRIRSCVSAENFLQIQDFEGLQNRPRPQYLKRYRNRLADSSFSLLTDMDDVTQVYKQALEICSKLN
Description: TR-FRET LanthaScreen Eu Kinase Binding Assay, NUAK1. To be noted: 5 nM Kinase Tracer 236; read-out: IC50, inhibitory activity toward NUAK1. As for the experimental part: The basic protocol for TR-FRET LanthaScreen Eu Kinase Binding Assay inhibitor studies were performed as follows. LanthaScreen Kinase Binding Assays (ThermoFisher/USA) to evaluate inhibitors were performed by addition of 5 μl of test compound in corresponding DMSO dilutions/5 μl of kinase/antibody mixture, 5 μl of tracer into 384 well small volume plates. After incubation for 1 hour at room temperature, plates were read. Data analysis of emission ratios was according to LanthaScreen Eu Kinase Binding Assay protocol.
Kinase and assay components were adjusted to final concentrations according to the kit protocol. For LRRK2: 5 nM wt human LRRK2, catalytic site, or G2019S human LRRK2, catalytic site (ThermoFisher/USA), 2 nM Eu-Anti-GST Antibody, 10 nM Kinase Tracer 236 in 1× Kinase Buffer A. For NUAK1: 8 nM wt human NUAK1, full length (ThermoFisher/USA), 2 nM Eu-Anti-His Antibody, 5 nM Kinase Tracer 236 in 1× Kinase Buffer A.

For experiment [2], the target named is T2, wt human TYK2, catalytic site (Homo sapiens, UniProt P29597).
T2 construct: 2 nM wt human TYK2, catalytic site (SignalChem/CAN); purchased SignalChem/CAN
T2 sequence (P29597 897-1176 limits assumed): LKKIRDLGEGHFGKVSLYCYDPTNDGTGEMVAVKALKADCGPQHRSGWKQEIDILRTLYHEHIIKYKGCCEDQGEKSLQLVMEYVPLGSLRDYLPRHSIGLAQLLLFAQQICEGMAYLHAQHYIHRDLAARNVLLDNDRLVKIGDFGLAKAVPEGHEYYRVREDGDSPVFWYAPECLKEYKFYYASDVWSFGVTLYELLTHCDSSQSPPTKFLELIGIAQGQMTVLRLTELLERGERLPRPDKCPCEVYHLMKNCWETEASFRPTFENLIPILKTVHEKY
Description: HTRF KinEASE assay, TYK2. The experiment is classed as biochemical. To be noted: 1 μM ATP; read-out: IC50, inhibitory activity toward TYK2. As for the experimental part:
Basic protocol for HTRF KinEASE assay (Cisbio/FRA) inhibitor studies involved two steps: Enzymatic step: Addition of 4 μl of test compound in corresponding DMSO dilutions, 4 μl of kinase/substrate mixture, 2 μl of ATP into 384 well small volume plates. Incubation for at least 30 minutes at room temperature.
Detection step: Addition of 5 μl antibody and 5 μl streptavidin-XL665, read plate after 60 minutes. Data analysis of emission ratios according to KinEASE assay protocol.
Kinase and assay components were adjusted to final concentrations according to the kit protocol. For TYK2: 2 nM wt human TYK2, catalytic site (SignalChem/CAN), 1 μM HTRF KinEASE-TK Substrate-biotin, 1 μM ATP in 1× Kinase Buffer

Where only a bound is given, the exact number is not on record here.

For the molecule `Fc1cccc(F)c1C1=Nc2cn[nH]c2-c2ccccc2N1` [Compound 8, 5-(2,6-difluorophenyl)-1,6-dihydrobenzo[d]pyrazolo[3,4-f][1,3]diazepine], the values for the IC50 in experiment [1] and in experiment [2] were 100 to 1000 nM and 10 to 100 nM, respectively.

Regarding `Fc1cccc(F)c1C1=Nc2ncccc2-c2[nH]ncc2N1` [Compound 11, 5-(2,6-difluorophenyl)-1,4-dihydropyrazolo[4,3-d]pyrido[3,2-f][1,3]diazepine], the figures for the IC50 in experiment [1] and in experiment [2] were 10 to 100 nM and 100 to 1000 nM, respectively.

Consider `Fc1ccc(Cl)c(F)c1C1=Nc2ccccc2-c2[nH]ncc2N1` [Compound 18, 5-(3-chloro-2,6-difluorophenyl)-1,4-dihydrobenzo[d]pyrazolo[3,4-f][1,3]diazepine], for which the IC50 in experiment [1] and in experiment [2] was 100 to 1000 nM throughout.

Turning to `Fc1cccc(F)c1C1=Nc2ccc(Cl)cc2-c2[nH]ncc2N1` [Compound 25, 9-chloro-5-(2,6-difluorophenyl)-1,4-dihydrobenzo[d]pyrazolo[3,4-f][1,3]diazepine], the results for the IC50 in experiment [1] and in experiment [2] were 10 to 100 nM and 100 to 1000 nM, respectively.

Consider `Fc1cccc(Cl)c1C1=Nc2ccccc2-c2[nH]ncc2N1` [Compound 27, 5-(2-chloro-6-fluorophenyl)-1,4-dihydrobenzo[d]pyrazolo[3,4-f][1,3]diazepine], for which the IC50 in experiment [1] and in experiment [2] was 10 to 100 nM throughout.

Take `Fc1cccc(Cl)c1C1=Nc2ncccc2-c2[nH]ncc2N1` [Compound 30, 5-(2-chloro-6-fluorophenyl)-1,4-dihydropyrazolo[4,3-d]pyrido[3,2-f][1,3]diazepine]: the IC50 in experiment [2] was in the range of 10 to 100 nM.

In the case of `Fc1ccc(F)c(C2=Nc3ccccc3-c3[nH]ncc3N2)c1F` [Compound 32, 5-(2,3,6-trifluorophenyl)-1,4-dihydrobenzo[d]pyrazolo[3,4-f][1,3]diazepine], the half-maximal inhibitory concentration (IC50) in experiment [1] and in experiment [2] was 100 to 1000 nM throughout.

As for `Fc1ccc2c(c1)-c1[nH]ncc1N=C(c1c(F)cccc1F)N2` [Compound 33, 5-(2,6-difluorophenyl)-9-fluoro-1,6-dihydrobenzo[d]pyrazolo[3,4-f][1,3]diazepine], the IC50 in experiment [1] and in experiment [2] was 10 to 100 nM in each case.

With `Fc1ccc2c(c1)-c1[nH]ncc1N=C(c1c(F)cccc1Cl)N2` [Compound 34, 5-(2-chloro-6-fluorophenyl)-9-fluoro-1,6-dihydrobenzo[d]pyrazolo[3,4-f][1,3]diazepine], the concentration for half-maximal inhibition (IC50) in experiment [1] and in experiment [2] was 10 to 100 nM in each case.

With `Cc1ccc2c(c1)-c1[nH]ncc1N=C(c1c(F)cccc1Cl)N2` [Compound 35, 5-(2-chloro-6-fluorophenyl)-9-methyl-1,6-dihydrobenzo[d]pyrazolo[3,4-f][1,3]diazepine], the IC50 in experiment [1] lay in the range of 10 to 100 nM; in experiment [2], 100 to 1000 nM.

For `Cc1ccc2c(c1)-c1[nH]ncc1N=C(c1c(F)cccc1F)N2` [Compound 36, 5-(2,6-difluorophenyl)-9-methyl-1,6-dihydrobenzo[d]pyrazolo[3,4-f][1,3]diazepine], the IC50 in experiment [1] lay within 10 to 100 nM; in experiment [2], 100 to 1000 nM.

As for `O=C(c1ccc2c(c1)N=C(c1c(F)cccc1F)Nc1cn[nH]c1-2)N1CCOCC1` [Compound 56, (5-(2,6-difluorophenyl)-1,4-dihydrobenzo[d]pyrazolo[3,4-f][1,3]diazepin-8-yl)(morpholino)methanone], the IC50 in experiment [2] was in the range of 100 to 1000 nM.

Consider `Fc1cccc(F)c1C1=Nc2cn[nH]c2-c2cn(C3CCOCC3)nc2N1` [Compound 60, 5-(2,6-difluorophenyl)-8-(tetrahydro-2H-pyran-4-yl)-6,8-dihydro-1H-dipyrazolo[3,4-d:3′,4′-f][1,3]diazepine], for which the IC50 in experiment [2] fell in the range of 100 to 1000 nM.

Turning to `Fc1cccc(F)c1C1=Nc2cn[nH]c2-c2[nH]ncc2N1` [Compound 66, 5-(2,6-difluorophenyl)-4,9-dihydro-1H-dipyrazolo[4,3-d:3′,4′-f][1,3]diazepine], the IC50 in experiment [2] was 10 to 100 nM.

`O=C(c1ccc2c(c1)N=C(c1c(Cl)cccc1Cl)Nc1cn[nH]c1-2)N1CCOCC1` [Compound 79, (5-(2,6-dichlorophenyl)-1,4-dihydrobenzo[d]pyrazolo[3,4-f][1,3]diazepin-8-yl)(morpholino)methanone]: the IC50 in experiment [2] fell in the range of 100 to 1000 nM.

For `NC(=O)c1ccc2c(c1)N=C(c1c(F)cccc1F)Nc1cn[nH]c1-2` [Compound 81, 5-(2,6-difluorophenyl)-1,4-dihydrobenzo[d]pyrazolo[3,4-f][1,3]diazepine-8-carboxamide], in experiment [2], the IC50 was less than 10 nM.

As for `O=[N+]([O-])c1cccc(F)c1C1=Nc2cn[nH]c2-c2ccccc2N1` [Compound 106, 5-(2-fluoro-6-nitrophenyl)-1,6-dihydrobenzo[d]pyrazolo[3,4-f][1,3]diazepine], in experiment [2], the IC50 was 100 to 1000 nM.

For the molecule `O=[N+]([O-])c1ccc(F)c(C2=Nc3cn[nH]c3-c3ccccc3N2)c1F` [Compound 107, 5-(2,6-difluoro-3-nitrophenyl)-1,6-dihydrobenzo[d]pyrazolo[3,4-f][1,3]diazepine], the IC50 in experiment [2] lay in the range of 100 to 1000 nM.

For the molecule `O=[N+]([O-])c1cccc(F)c1C1=Nc2cn[nH]c2-c2cccnc2N1` [Compound 108, 5-(2-fluoro-6-nitrophenyl)-1,6-dihydropyrazolo[4,3-d]pyrido[3,2-f][1,3]diazepine], in experiment [2], the IC50 is 100 to 1000 nM.

In the case of `Fc1cccc(I)c1C1=Nc2ccccc2-c2[nH]ncc2N1` [Compound 111, 5-(2-fluoro-6-iodophenyl)-1,4-dihydrobenzo[d]pyrazolo[3,4-f][1,3]diazepine], the IC50 in experiment [2] was 100 to 1000 nM.

Consider `COc1cccc(F)c1C1=Nc2cn[nH]c2-c2cccnc2N1` [Compound 119], for which the IC50 in experiment [2] lay in the range of 100 to 1000 nM.

On to `Fc1ccc2c(c1F)N=C(c1c(F)cccc1F)Nc1cn[nH]c1-2` [Compound 170, 5-(2,6-difluorophenyl)-7,8-difluoro-1,4-dihydrobenzo[d]pyrazolo[3,4-f][1,3]diazepine], for which, in experiment [2], the IC50 was 100 to 1000 nM.

Consider `O=C(NC1CCOCC1)c1cc2c(cc1Cl)-c1n[nH]cc1N=C(c1c(F)cccc1F)N2` [Compound 199, 9-chloro-5-(2,6-difluorophenyl)-N-(tetrahydro-2H-pyran-4-yl)-2,6-dihydrobenzo[d]pyrazolo[3,4-f][1,3]diazepine-8-carboxamide], for which, in experiment [2], the IC50 lay within 100 to 1000 nM.

For `Fc1cc2c(cc1OC1CCOCC1)N=C(c1c(Cl)cccc1C(F)(F)F)Nc1c[nH]nc1-2` [Compound 224, 5-(2-chloro-6-(trifluoromethyl)phenyl)-9-fluoro-8-((tetrahydro-2H-pyran-4-yl)oxy)-2,4-dihydrobenzo[d]pyrazolo[3,4-f][1,3]diazepine], the IC50 in experiment [2] is 10 to 100 nM.

Consider `CCC(CC)Oc1cc2c(cc1F)-c1n[nH]cc1N=C(c1c(F)cccc1Cl)N2` [Compound 232, 5-(2-chloro-6-fluorophenyl)-9-fluoro-8-(pentan-3-yloxy)-2,6-dihydrobenzo[d]pyrazolo[3,4-f][1,3]diazepine], for which the IC50 in experiment [2] is 10 to 100 nM.

`Fc1cc2c(cc1Oc1ccccc1)N=C(c1c(F)cccc1Cl)Nc1c[nH]nc1-2` [Compound 244, 5-(2-chloro-6-fluorophenyl)-9-fluoro-8-phenoxy-2,4-dihydrobenzo[d]pyrazolo[3,4-f][1,3]diazepine]: the IC50 in experiment [2] lay within 100 to 1000 nM.

Take `CC[C@@H](C)Oc1cc2c(cc1F)-c1n[nH]cc1N=C(c1c(F)cccc1Cl)N2` [Compound 248, (R)-8-(sec-butoxy)-5-(2-chloro-6-fluorophenyl)-9-fluoro-2,6-dihydrobenzo[d]pyrazolo[3,4-f][1,3]diazepine]: the IC50 in experiment [2] lay within 10 to 100 nM.
